For 29 compounds, inhibition and IC50 results are on record in patent US6875760B2 (Novo Nordisk A/S, priority 1999, dated 2005).

The assay deals with T1, cloned human glucagon receptor (Homo sapiens, UniProt P47871).
T1 construct: expressed in transfected cells; plasma membrane preparation
Put plainly: Glucagon Binding Assay (II). The note with it: for inhibition at 1 µM: screened at 1 μM, library compounds, read-out: displacement of the glucagon tracer when screened at 1 μM concentration in the glucagon binding assay II; for IC50: plasma membranes of BHK cells expressing the receptor, read-out: Glu Bd Assay (II) IC50. As for the experimental part:
Binding of compounds to the glucagon receptor was determined in a competition binding assay using the cloned human glucagon receptor.
The receptor inserted in the pLJ6′ expression vector using EcoRI/SSt1 restriction sites (Lok et al.) was expressed in a baby hamster kidney cell line (A3 BHK 570-25).
The homogenate was resuspended and centrifuged again. The final precipitate containing the plasma membranes was suspended in buffer and stored at −80° C. until use.
Binding assays were carried out in duplicate in polypropylene tubes or microtiter plates. The buffer used in this assay was 50 mM HEPES pH 7.4 containing 5 mM EGTA, 5 mM MgCl2 and 0.005% Tween 20. Sample (glucagon (Bachem CA) or test compounds) was added to each tube or well. Tracer (˜25.000 cpm) was diluted in buffer and was added to each tube or well. 0.5 mg freshly thawed plasma membrane protein diluted in buffer was then added in aliquots to each tube or well. Tubes or plates were incubated at 37° C. for 1 hour. Non-specific binding was determined with 10^−7 M of glucagon. Bound tracer and unbound tracer were then separated by vacuum filtration. The tubes or wells were washed twice with 0.01% Triton X-100 buffer. Scintillation fluid was added to the plates and radioactivity was quantified using a scintillation counter.

Bounds are passed on as bounds.

T1 sequence (P47871 26-477): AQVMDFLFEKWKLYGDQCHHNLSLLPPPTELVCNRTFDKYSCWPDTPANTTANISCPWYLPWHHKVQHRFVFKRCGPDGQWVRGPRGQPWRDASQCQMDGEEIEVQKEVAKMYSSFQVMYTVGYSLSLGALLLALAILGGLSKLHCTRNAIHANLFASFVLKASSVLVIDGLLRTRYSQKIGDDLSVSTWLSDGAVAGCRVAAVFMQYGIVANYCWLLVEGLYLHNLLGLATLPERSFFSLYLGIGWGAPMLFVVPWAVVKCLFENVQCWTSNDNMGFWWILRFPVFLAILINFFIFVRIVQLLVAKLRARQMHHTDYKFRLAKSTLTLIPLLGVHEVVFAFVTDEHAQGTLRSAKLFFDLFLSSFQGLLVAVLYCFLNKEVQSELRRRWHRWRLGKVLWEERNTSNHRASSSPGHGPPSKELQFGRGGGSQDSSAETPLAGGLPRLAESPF

For `O=C(O)CCNC(=O)c1ccc(CN(C(=O)Nc2ccc(OC(F)(F)F)cc2)C2C[C@H]2c2ccccc2)cc1` (stereo in doubt) [Example 187, 3-{4-[1-(2-Phenylcyclopropyl)-3-(4-trifluoromethoxyphenyl)ureidomethyl]benzoylamino}propionic acid], the inhibition at 1 µM was greater than 50%.
Still for that read-out and setting: the figure for `O=C(O)CCNC(=O)c1ccc(CN(C(=O)Nc2ccc(Cl)c(C(F)(F)F)c2)C2C[C@H]2c2ccccc2)cc1` (stereo in doubt) [Example 188, 3-{4-[3-(4-Chloro-3-trifluoromethylphenyl)-1-(2-phenylcyclopropyl)ureidomethyl]benzoylamino}propionic acid] is greater than 50%.
Same read-out and setting: the figure for `O=C(O)CCNC(=O)c1ccc(CN(C(=O)Nc2ccc(Cl)c(C(F)(F)F)c2)[C@@H](CO)CC2CCCCC2)cc1` (stereo in doubt) [Example 189, 3-{4-[3-(4-Chloro-3-trifluoromethylphenyl)-1-(2-cyclohexyl-1-hydroxymethylethyl)ureidomethyl]benzoylamino}propionic acid] is greater than 50%; for `O=C(O)CCCOc1ccc(CN(C(=O)Nc2ccc(OC(F)(F)F)cc2)C2C[C@H]2c2ccccc2)cc1` (stereo in doubt) [Example 222, 4-{4-[1-(2-Phenylcyclopropyl)-3-(4-trifluoromethoxyphenyl)ureidomethyl]phenoxy}butyric acid] it is greater than 50%; for `O=C(O)CCCOc1ccc(CN(C(=O)Nc2ccc(Cl)c(C(F)(F)F)c2)C2C[C@H]2c2ccccc2)cc1` (stereo in doubt) [Example 223, 4-{4-[3-(4-Chloro-3-trifluoromethylphenyl)-1-(2-phenylcyclopropyl)ureidomethyl]phenoxy}butyric acid] it is greater than 50%.
By IC50 is commonly meant the concentration needed to halve the response being measured. Regarding `CC(C)(C)C1CCC(N(Cc2ccc(C(=O)NCCC(=O)O)cc2)C(=O)Nc2ccc(SC(F)(F)F)cc2)CC1` (centres unmarked) [Example 101, 3-{4-[1-(4-tert-Butylcyclohexyl)-3-(4-trifluoromethylsulfanylphenyl)ureidomethyl]benzoylamino)propionic acid], the IC50 worked out at 119 nM.
As for `CC(C)(C)C1CCC(N(Cc2ccc(C(=O)NCCC(=O)O)cc2)C(=O)Nc2ccc3ccccc3c2)CC1` (centres unmarked) [Example 102, 3-{4-[1-(4-tert-Butylcyclohexyl)-3-naphthalen-2-ylureidomethyl]benzoylamino)propionic acid], the IC50 stood at 167 nM.
The same measure, in the same setting: the figure for `CC(C)(C)C1CCC(N(Cc2ccc(C(=O)NCCC(=O)O)cc2)C(=O)Nc2cc(Cl)nc(Cl)c2)CC1` (centres unmarked) [Example 103, 3-{4-[1-(4-tert-Butylcyclohexyl)-3-(2,6-dichloropyridin-4-yl)ureidomethyl]benzoylamino)propionic acid] is 150 nM; for `CC(C)(C)C1CCC(N(Cc2ccc(C(=O)NCCC(=O)O)cc2)C(=O)Nc2cc(Cl)cc(Cl)c2)CC1` (centres unmarked) [Example 104, 3-{4-[1-(4-tert-Butylcyclohexyl)-3-(3,5-dichlorophenyl)ureidomethyl]benzoylamino)propionic acid] it is 50 nM.
The same measure, in the same setting: the figure for `CC(C)(C)C1CCC(N(Cc2ccc(S(=O)(=O)NCCC(=O)O)cc2)C(=O)Nc2ccc(SC(F)(F)F)cc2)CC1` (centres unmarked) [Example 105, 3-{4-[1-(4-tert-Butylcyclohexyl)-3-(4-trifluoromethylsulfanylphenyl)ureidomethyl]benzenesulfonylamino)propionic acid] is 446 nM; for `CC(C)(C)C1CCC(N(Cc2ccc(S(=O)(=O)NCCC(=O)O)cc2)C(=O)Nc2ccc(OC(F)(F)F)cc2)CC1` (centres unmarked) [Example 106, 3-{4-[1-(4-tert-Butylcyclohexyl)-3-(4-trifluoromethoxyphenyl)ureidomethyl]benzenesulfonylamino)propionic acid] it is 468 nM; for `Cc1ccc(NC(=O)N(Cc2ccc(S(=O)(=O)NCCC(=O)O)cc2)C2CCC(C(C)(C)C)CC2)cc1F` (centres unmarked) [Example 107, 3-{4-[1-(4-tert-Butylcyclohexyl)-3-(3-fluoro-4-methylphenyl)ureidomethyl]benzenesulfonylamino)propionic acid] it is 1200 nM.
Still for that read-out and setting: the figure for `CC(C)(C)c1ccc(CN(Cc2ccc(C(=O)NCCC(=O)O)cc2)C(=O)Nc2cc(Cl)cc(Cl)c2)cc1` [Example 108, 3-{4-[1-(4-tert-Butylbenzyl)-3-(3,5-dichlorophenyl)ureidomethyl]benzoylamino)propionic acid] is 669 nM; for `C[C@H](C1CCCCC1)N(Cc1ccc(C(=O)NCCC(=O)O)cc1)C(=O)Nc1ccc2ccccc2c1` [Example 109, 3-{4-[1-((1R)-1-Cyclohexylethyl)-3-naphthalene-2-ylureidomethyl]benzoylamino)propionic acid] it is 916 nM; for `C[C@@H](C1CCCCC1)N(Cc1ccc(C(=O)NCCC(=O)O)cc1)C(=O)Nc1ccc2ccccc2c1` [Example 110, 3-{4-[1-((1S)-1-Cyclohexylethyl)-3-naphthalene-2-ylureidomethyl]benzoylamino)propionic acid] it is 694 nM.
As to `CCCCc1ccc(NC(=O)N(Cc2ccc(C(=O)NCCC(=O)O)cc2)C2Cc3ccccc3C2)cc1` [Example 112, 3-{4-[1-(2,3-Dihydro-1H-inden-2-yl)-3-(4-butylphenyl)ureidomethyl]benzoylamino)propionic acid], the IC50 was determined as 220 nM.
On the same count and under the same terms, with `CC(C)(C)C1CCC(N(Cc2ccc(C(=O)NCCC(=O)O)s2)C(=O)Nc2ccc(OC(F)(F)F)cc2)CC1` (centres unmarked) [Example 113, 3-{5-[1-(4-tert-Butylcyclohexyl)-3-(4-trifluoromethoxyphenyl)ureidomethyl]thiophene-2-carbonylamino)propionic acid] the figure was 254 nM; with `CC1C(N(Cc2ccc(C(=O)NCCC(=O)O)cc2)C(=O)Nc2cc(Cl)cc(Cl)c2)CC2CC1C2(C)C` (centres unmarked) [Example 114], 575 nM.
As for `O=C(O)CCNC(=O)c1ccc(CN(Cc2ccccc2OC(F)(F)F)C(=O)Nc2ccc3ccccc3c2)cc1` [Example 115, 3-{4-[1-(2-Trifluoromethoxybenzyl)-3-naphthalene-2-ylureidomethyl]benzoylamino)propionic acid], the inhibition at 1 µM was greater than 50%.
Still for that read-out and setting: the figure for `CCCCc1ccc(NC(=O)N(Cc2ccc(C(=O)NCCC(=O)O)cc2)Cc2ccccc2OC(F)(F)F)cc1` [Example 116, 3-{4-[1-(2-Trifluoromethoxybenzyl)-3-(4-butylphenyl)ureidomethyl]benzoylamino)propionic acid] is greater than 50%; for `O=C(O)CCNC(=O)c1ccc(CN(Cc2ccccc2OC(F)(F)F)C(=O)Nc2ccc(SC(F)(F)F)cc2)cc1` [Example 117, 3-{4-[1-(2-Trifluoromethoxybenzyl)-3-(4-trifluoromethylsulfanylphenyl)ureidomethyl]benzoylamino)propionic acid] it is greater than 50%.
Same read-out and setting: the figure for `CCCCc1ccc(NC(=O)N(Cc2ccc(C(=O)NCCC(=O)O)cc2)Cc2ccc(C(F)(F)F)cc2)cc1` [Example 118, 3-{4-[1-(4-Trifluoromethylbenzyl)-3-(4-butylphenyl)ureidomethyl]benzoylamino)propionic acid] is greater than 50%.
Turning to `CCCCOc1ccc(NC(=O)N(Cc2ccc(C(=O)NCCC(=O)O)cc2)Cc2ccc(C(F)(F)F)cc2)cc1` [Example 119, 3-{4-[1-(4-Trifluoromethylbenzyl)-3-(4-butoxyphenyl)ureidomethyl]benzoylamino)propionic acid], the inhibition at 1 µM was greater than 50%.
Still for that read-out and setting: with `O=C(O)CCNC(=O)c1ccc(CN(Cc2ccc(C(F)(F)F)cc2)C(=O)Nc2ccc(SC(F)(F)F)cc2)cc1` [Example 120, 3-{4-[1-(4-Trifluoromethylbenzyl)-3-(4-trifluoromethylsulfanylphenyl)ureidomethyl]benzoylamino)propionic acid] the figure was greater than 50%; with `COc1cc(CN(Cc2ccc(C(=O)NCCC(=O)O)cc2)C(=O)Nc2ccc(C)cc2)ccc1O` [Example 121, 3-{4-[1-(4-Hydroxy-3-methoxybenzyl)-3-(4-methylphenyl)ureidomethyl]benzoylamino)propionic acid], greater than 50%; with `COc1cc(CN(Cc2ccc(C(=O)NCCC(=O)O)cc2)C(=O)Nc2ccc3c(c2)OCO3)ccc1O` [Example 122, 3-{4-[1-(4-Hydroxy-3-methoxybenzyl)-3-(3,4-methylenedioxyphenyl)ureidomethyl]benzoylamino)propionic acid], greater than 50%.
The same measure, in the same setting: with `O=C(O)CCNC(=O)c1ccc(CN(CC2(O)CCCCC2)C(=O)Nc2ccc3c(c2)OCO3)cc1` [Example 123, 3-{4-[1-(1-Hydroxycyclohexylmethyl)-3-(3,4-methylenedioxyphenyl)ureidomethyl]benzoylamino)propionic acid] the figure was greater than 50%; with `O=C(O)CCNC(=O)c1ccc(CN(Cc2ccccc2OC(F)(F)F)C(=O)Nc2ccc3ccccc3c2)s1` [Example 124, 3-{5-[1-(2-Trifluoromethoxybenzyl)-3-naphthalene-2-ylureidomethyl]thiophene-2-carbonylamino)propionic acid], greater than 50%; with `CCCCOc1ccc(NC(=O)N(Cc2ccc(C(=O)NCCC(=O)O)s2)Cc2ccccc2OC(F)(F)F)cc1` [Example 125, 3-{5-[1-(2-Trifluoromethoxybenzyl)-3-(4-butoxyphenyl)ureidomethyl]thiophene-2-carbonylamino)propionic acid], greater than 50%.
